Results reported in patent US10472356B2, “Bicyclic ketone sulfonamide compounds” (AMGEN INC., priority 2015, dated 2019).

Legend:
Assay type in all cases: cell-based
[1] = molecular target: T1, human Nav1.7 (Homo sapiens, UniProt Q15858); assay: Nav 1.7 In Vitro PatchXpress (PX) Assay; conditions: HEK 293 cells stably transfected with human Nav1.7; PatchXpress whole cell voltage clamp; partially inactivated state (holding potential yielding 20 to 50% inactivation); read-out: hNav1.7 PX IC50
T1 construct: expressed in transfected cells; host or cells: HEK293
Outline: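 Whole-cell voltage clamp on HEK 293 cells stably expressing human Nav1.7 (automated patch), holding potential giving 20–50% inactivation; 20 ms pulses to −10 mV at 0.1 Hz. Single compound concentration applied 3 min, peak current inhibition measured; IC50 fitted from 3–5 cells per concentration.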

[2] = molecular target: T1, human Nav1.7; assay: Nav 1.7 IWQ In Vitro Assay (IonWorks Quattro); conditions: HEK293 cells stably transfected with human Nav 1.7; IonWorks Quattro population patch-clamp; 26th pulse to −20 mV, 5 Hz; cells unclamped 5 to 8 minutes with compound; read-out: hNav1.7 IWQ IC50
Experimental: Nav 1.7 or Nav 1.5 IWQ In Vitro Assay
HEK293 cells stably transfected with either human Nav 1.7 or human Nav 1.5 were recorded in population patch-clamp mode with the IonWorks® Quattro automated electrophysiology system (Molecular Devices, LLC, Sunnyvale, Calif.). Cells were voltage clamped to −110 mV for three seconds (Nav 1.7) or half a second (Nav 1.5) and sodium currents were elicited by a train of 26 depolarizations of 150 msec duration to −20 mV (Nav 1.7) or 0 mV (Nav 1.5) at a frequency of 5 Hz. Cells were then left unclamped for a period of 5 to 8 minutes while a single concentration of test compound was added. Following this compound incubation period, cells were then reclamped to −110 mV for three seconds (Nav1.7) or half a second (Nav1.5) to recover unbound channels and put through the same 26 pulse voltage protocol as above. Peak inward current during the 26th pulse to −20 mV (Nav 1.7) or 0 mV (Nav 1.5) in the presence of compound was divided by the peak inward current evoked by the 26th pulse to −20 mV (Nav1.7) or 0 mV (Nav1.5) in the absence of compound to determine percent inhibition. Concentration-response curves of percent.

[3] = molecular target: T1, human Nav1.7; assay: Nav 1.7 IWB In Vitro Assay (IonWorks Barracuda); conditions: HEK293 cells stably transfected with human Nav 1.7; IonWorks Barracuda population patch-clamp; cells clamped to −20 mV for 4 minutes with compound; 26th pulse; read-out: hNav1.7 IWB IC50
Outline: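 Population patch clamp of HEK293 cells stably expressing human Nav 1.7: 26 pulses to −20 mV (150 ms, 5 Hz) from −110 mV, then 4 min at −20 mV with compound, 3 s recovery at −110 mV and the train repeated. % inhibition of 26th-pulse peak current vs no compound; IC50 from concentration-response curves.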

T1 sequence (Q15858 whole entry): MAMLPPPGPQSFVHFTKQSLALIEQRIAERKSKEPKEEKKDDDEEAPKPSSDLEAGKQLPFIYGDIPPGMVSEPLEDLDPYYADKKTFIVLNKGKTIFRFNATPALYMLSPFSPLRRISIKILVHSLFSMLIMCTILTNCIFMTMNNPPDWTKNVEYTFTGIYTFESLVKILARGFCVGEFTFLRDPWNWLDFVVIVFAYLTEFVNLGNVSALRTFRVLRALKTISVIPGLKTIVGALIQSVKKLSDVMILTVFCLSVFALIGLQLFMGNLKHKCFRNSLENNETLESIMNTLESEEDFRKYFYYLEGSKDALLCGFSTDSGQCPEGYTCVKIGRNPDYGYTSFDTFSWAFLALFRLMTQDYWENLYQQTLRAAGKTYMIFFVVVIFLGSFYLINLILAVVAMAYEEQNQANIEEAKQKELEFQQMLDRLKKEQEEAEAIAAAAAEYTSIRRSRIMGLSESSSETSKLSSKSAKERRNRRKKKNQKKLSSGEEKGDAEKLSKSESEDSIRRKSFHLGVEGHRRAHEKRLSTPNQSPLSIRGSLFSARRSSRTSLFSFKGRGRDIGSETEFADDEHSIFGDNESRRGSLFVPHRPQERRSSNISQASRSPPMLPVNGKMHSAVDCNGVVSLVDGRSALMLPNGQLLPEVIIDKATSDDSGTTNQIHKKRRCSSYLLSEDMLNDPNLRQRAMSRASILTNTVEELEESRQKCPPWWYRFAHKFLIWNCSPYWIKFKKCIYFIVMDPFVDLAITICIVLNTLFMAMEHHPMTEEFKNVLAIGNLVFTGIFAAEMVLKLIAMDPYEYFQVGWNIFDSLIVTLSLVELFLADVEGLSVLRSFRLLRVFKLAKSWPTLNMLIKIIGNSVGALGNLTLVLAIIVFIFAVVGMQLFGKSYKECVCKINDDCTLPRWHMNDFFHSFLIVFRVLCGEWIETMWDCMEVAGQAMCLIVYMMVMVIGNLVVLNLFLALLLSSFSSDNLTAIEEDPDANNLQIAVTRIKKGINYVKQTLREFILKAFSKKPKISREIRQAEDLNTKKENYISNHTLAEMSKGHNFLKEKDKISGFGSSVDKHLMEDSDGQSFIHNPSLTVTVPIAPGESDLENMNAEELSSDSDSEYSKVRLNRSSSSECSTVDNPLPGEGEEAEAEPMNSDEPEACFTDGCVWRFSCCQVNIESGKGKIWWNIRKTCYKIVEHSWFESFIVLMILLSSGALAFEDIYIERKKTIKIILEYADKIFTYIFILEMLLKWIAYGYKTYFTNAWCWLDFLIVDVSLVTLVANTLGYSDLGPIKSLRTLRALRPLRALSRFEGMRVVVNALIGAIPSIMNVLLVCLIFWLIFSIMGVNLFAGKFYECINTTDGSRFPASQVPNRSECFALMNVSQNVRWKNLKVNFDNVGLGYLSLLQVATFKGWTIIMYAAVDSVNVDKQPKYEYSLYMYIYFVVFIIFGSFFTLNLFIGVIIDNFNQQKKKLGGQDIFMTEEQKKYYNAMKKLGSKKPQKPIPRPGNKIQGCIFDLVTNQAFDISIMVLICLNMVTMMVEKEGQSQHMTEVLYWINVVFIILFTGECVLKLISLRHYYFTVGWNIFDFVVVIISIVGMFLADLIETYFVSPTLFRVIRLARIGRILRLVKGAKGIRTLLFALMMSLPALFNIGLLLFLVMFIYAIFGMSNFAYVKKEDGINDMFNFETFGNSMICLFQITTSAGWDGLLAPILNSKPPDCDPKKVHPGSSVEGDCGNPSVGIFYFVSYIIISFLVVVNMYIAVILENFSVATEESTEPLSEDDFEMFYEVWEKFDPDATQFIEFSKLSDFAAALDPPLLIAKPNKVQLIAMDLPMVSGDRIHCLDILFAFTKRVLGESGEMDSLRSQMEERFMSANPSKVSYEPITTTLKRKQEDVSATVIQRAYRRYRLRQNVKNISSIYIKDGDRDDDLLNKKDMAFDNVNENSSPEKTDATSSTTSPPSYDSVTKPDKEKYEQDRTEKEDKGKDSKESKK

Compound: COc1cc(-c2cc(OC)c(-n3c4c(ccc3=O)CN(S(=O)(=O)Nc3ccon3)CC4)cc2F)ccc1Cl (racemic) [Example 15-(Rac), (Rac)-1-(4′-chloro-2-fluoro-3′,5-dimethoxy-4-biphenylyl)-N-3-isoxazolyl-2-oxo-1,5,7,8-tetrahydro-1,6-naphthyridine-6(2H)-sulfonamide]
- IC50 [1]: 0.0218 µM
- IC50 [2]: 0.121 µM
- IC50 [3]: 0.0081 µM

Compound: COc1cc(-c2cccc(C(F)(F)F)c2)c(F)cc1-n1c2c(ccc1=O)CN(S(=O)(=O)Nc1ccon1)CC2 (racemic) [Example 16-(Rac), (Rac)-1-(2-fluoro-5-methoxy-3′-(trifluoromethyl)-4-biphenylyl)-N-3-isoxazolyl-2-oxo-1,5,7,8-tetrahydro-1,6-naphthyridine-6(2H)-sulfonamide]
- IC50 [1]: 0.0388 µM
- IC50 [2]: 0.0047 µM
- IC50 [3]: 0.0053 µM

Compound: COc1cc(-c2cc(F)cc(Cl)c2)c(F)cc1-n1c2c(ccc1=O)CN(S(=O)(=O)Nc1ccon1)CC2 (racemic) [Example 18-(Rac), (Rac)-1-(3′-chloro-2,5′-difluoro-5-methoxy-4-biphenylyl)-N-3-isoxazolyl-2-oxo-1,5,7,8-tetrahydro-1,6-naphthyridine-6(2H)-sulfonamide]
- IC50 [1]: 0.0399 µM
- IC50 [2]: 0.0043 µM
- IC50 [3]: 0.0069 µM

Compound: COc1cc(-c2cccc(OC(F)F)c2)c(F)cc1-n1c2c(ccc1=O)CN(S(=O)(=O)Nc1ccon1)CC2 (racemic) [Example 19-(Rac), (Rac)-1-(3′-(difluoromethoxy)-2-fluoro-5-methoxy-4-biphenylyl)-N-3-isoxazolyl-2-oxo-1,5,7,8-tetrahydro-1,6-naphthyridine-6(2H)-sulfonamide]
- IC50 [1]: 0.117 µM
- IC50 [2]: 0.0055 µM
- IC50 [3]: 0.0156 µM

Compound: COc1cc(-c2ccc(F)c(F)c2)c(F)cc1-n1c2c(ccc1=O)CN(S(=O)(=O)Nc1ccon1)CC2 (racemic) [Example 20-(Rac), (Rac)-N-3-isoxazolyl-2-oxo-1-(2,3′,4′-trifluoro-5-methoxy-4-biphenylyl)-1,5,7,8-tetrahydro-1,6-naphthyridine-6(2H)-sulfonamide]
- IC50 [1]: 0.159 µM
- IC50 [2]: 0.0067 µM
- IC50 [3]: 0.0315 µM

Compound: COc1cc(-c2ccc(C)c(F)c2)c(F)cc1-n1c2c(ccc1=O)CN(S(=O)(=O)Nc1ccon1)CC2 (racemic) [Example 21-(Rac), (Rac)-1-(2,3′-difluoro-5-methoxy-4′-methyl-4-biphenylyl)-N-3-isoxazolyl-2-oxo-1,5,7,8-tetrahydro-1,6-naphthyridine-6(2H)-sulfonamide]
- IC50 [1]: 0.0913 µM
- IC50 [2]: 0.0143 µM
- IC50 [3]: 0.0178 µM

Compound: COc1cc(-c2cc(C(F)(F)F)cnc2OC)c(F)cc1-n1c2c(ccc1=O)CN(S(=O)(=O)Nc1ccon1)CC2 (racemic) [Example 23, (Rac)-1-(5-fluoro-2-methoxy-4-(2-methoxy-5-(trifluoromethyl)-3-pyridinyl)phenyl)-N-3-isoxazolyl-2-oxo-1,5,7,8-tetrahydro-1,6-naphthyridine-6(2H)-sulfonamide]
- IC50 [1]: 0.0254 µM
- IC50 [2]: 0.007 µM
- IC50 [3]: 0.0068 µM

Compound: COc1cc(-c2cc(F)cc(Cl)c2)c(F)cc1-n1c2c(ccc1=O)CN(S(=O)(=O)Nc1ncccn1)CC2 (racemic) [Example 31, (Rac)-1-(3′-chloro-2,5′-difluoro-5-methoxy-4-biphenylyl)-2-oxo-N-2-pyrimidinyl-1,5,7,8-tetrahydro-1,6-naphthyridine-6(2H)-sulfonamide]
- IC50 [1]: 0.137 µM
- IC50 [2]: 0.0281 µM
- IC50 [3]: 0.0362 µM

Compound: COc1cc(-c2ccc(F)c(F)c2)c(F)cc1-n1c2c(ccc1=O)CN(S(=O)(=O)Nc1cccnn1)CC2 (racemic) [Example 32-(Rac), (Rac)-2-oxo-N-3-pyridazinyl-1-(2,3′,4′-trifluoro-5-methoxy-4-biphenylyl)-1,5,7,8-tetrahydro-1,6-naphthyridine-6(2H)-sulfonamide]
- IC50 [1]: 0.161 µM
- IC50 [2]: 0.0237 µM
- IC50 [3]: 0.0305 µM

Compound: COc1cc(-c2ccc(Cl)c(C)c2)c(F)cc1-n1c2c(ccc1=O)CN(S(=O)(=O)Nc1cccnn1)CC2 (racemic) [Example 33-(Rac), (Rac)-1-(4′-chloro-2-fluoro-5-methoxy-3′-methyl-4-biphenylyl)-2-oxo-N-3-pyridazinyl-1,5,7,8-tetrahydro-1,6-naphthyridine-6(2H)-sulfonamide]
- IC50 [1]: 0.0533 µM
- IC50 [2]: 0.0196 µM
- IC50 [3]: 0.0261 µM

Compound: COc1cc(C#CC2CCCC2)c(F)cc1-n1c2c(ccc1=O)CN(S(=O)(=O)Nc1ccon1)CC2 (racemic) [Example 34-(Rac), (Rac)-1-(4-(cyclopentylethynyl)-5-fluoro-2-methoxyphenyl)-N-3-isoxazolyl-2-oxo-1,5,7,8-tetrahydro-1,6-naphthyridine-6(2H)-sulfonamide]
- IC50 [1]: 0.408 µM
- IC50 [2]: 0.0888 µM
- IC50 [3]: 0.0485 µM

Compound: COc1cc(-c2ccc(Cl)c(C#N)c2)c(F)cc1-n1c2c(ccc1=O)CN(S(=O)(=O)Nc1ccon1)CC2 (racemic) [Example 35, (Rac)-1-(4′-chloro-3′-cyano-2-fluoro-5-methoxy-4-biphenylyl)-N-3-isoxazolyl-2-oxo-1,5,7,8-tetrahydro-1,6-naphthyridine-6(2H)-sulfonamide]
- IC50 [1]: 0.177 µM
- IC50 [2]: 0.004 µM
- IC50 [3]: 0.018 µM

Compound: COc1nc(-c2cc(F)cc(Cl)c2)c(F)cc1-n1c2c(ccc1=O)CN(S(=O)(=O)Nc1cccnn1)CC2 (racemic) [Example 37, (Rac)-1-(6-(3-chloro-5-fluorophenyl)-5-fluoro-2-methoxy-3-pyridinyl)-2-oxo-N-3-pyridazinyl-1,5,7,8-tetrahydro-1,6-naphthyridine-6(2H)-sulfonamide]
- IC50 [1]: 1.03 µM
- IC50 [2]: 0.137 µM
- IC50 [3]: 0.269 µM

Compound: COc1cc(-c2cc(F)cc(Cl)c2)c(F)cc1-n1c2c(ccc1=O)CN(S(=O)(=O)Nc1cccnn1)CC2 (racemic) [Example 38-(Rac), (Rac)-1-(3′-chloro-2,5′-difluoro-5-methoxy-4-biphenylyl)-2-oxo-N-3-pyridazinyl-1,5,7,8-tetrahydro-1,6-naphthyridine-6(2H)-sulfonamide]
- IC50 [1]: 0.0878 µM
- IC50 [2]: 0.0167 µM
- IC50 [3]: 0.0102 µM

Compound: COc1cc(-c2ccc(Cl)c(C)c2)c(F)cc1-n1c2c(ccc1=O)CN(S(=O)(=O)Nc1nccs1)CC2 (racemic) [Example 39, (Rac)-1-(4′-chloro-2-fluoro-5-methoxy-3′-methyl-4-biphenylyl)-2-oxo-N-1,3-thiazol-2-yl-1,5,7,8-tetrahydro-1,6-naphthyridine-6(2H)-sulfonamide]
- IC50 [1]: 0.0351 µM
- IC50 [2]: 0.0152 µM
- IC50 [3]: 0.0378 µM

Compound: COc1cc(-c2cc(OC)c(-n3c4c(ccc3=O)CN(S(=O)(=O)Nc3ccon3)CC4)cc2F)ccc1C (racemic) [Example 58-(Rac), (Rac)-1-(2-fluoro-3′,5-dimethoxy-4′-methyl-4-biphenylyl)-N-3-isoxazolyl-2-oxo-1,5,7,8-tetrahydro-1,6-naphthyridine-6(2H)-sulfonamide]
- IC50 [1]: 0.078 µM
- IC50 [2]: 0.0123 µM
- IC50 [3]: 0.0241 µM

Compound: COc1cc(-c2cc(OC)c(-n3c4c(ccc3=O)CN(S(=O)(=O)Nc3cccnn3)CC4)cc2F)ccc1Cl (single isomer, unassigned) [Example 2-M, M-1-(4′-chloro-2-fluoro-3′,5-dimethoxy-4-biphenylyl)-2-oxo-N-3-pyridazinyl-1,5,7,8-tetrahydro-1,6-naphthyridine-6(2H)-sulfonamide]
- IC50 [1]: 5.53 µM
- IC50 [2]: 0.255 µM
- IC50 [3]: 0.132 µM
